According to patent US20230406831A1, “COMPOUNDS AND METHODS OF INHIBITING BACTERIAL CHAPERONIN SYSTEMS” (THE TRUSTEES OF INDIANA UNIVERSITY, priority 2020, published 2023):
Like-named read-outs stand apart in the source and are kept apart here.

Experiments:
native MDH = target: T1, native MDH (Sus scrofa, UniProt P00346); experiment: Native MDH enzymatic activity counter-screen; type: biochemical, pig; details: compounds added after refolding and EDTA quench, read-out: Biochemical Assay IC50 Native MDH Activity
T1 construct: soluble pig heart MDH from Roche, product #10127248001; purchased Roche 10127248001; host or cells: pig heart
T1 sequence (P00346 25-338): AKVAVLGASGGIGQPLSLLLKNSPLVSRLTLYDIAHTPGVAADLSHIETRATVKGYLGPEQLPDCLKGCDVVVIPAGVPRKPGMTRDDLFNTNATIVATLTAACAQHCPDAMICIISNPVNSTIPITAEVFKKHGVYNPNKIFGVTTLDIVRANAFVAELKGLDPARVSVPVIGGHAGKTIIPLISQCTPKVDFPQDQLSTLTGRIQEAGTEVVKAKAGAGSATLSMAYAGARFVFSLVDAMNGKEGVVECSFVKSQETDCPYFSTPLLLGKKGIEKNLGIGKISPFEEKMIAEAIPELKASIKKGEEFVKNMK
Procedure: Counter-screening compounds for inhibition of native MDH enzymatic activity.
Reagent Preparations & Assay Protocol: This assay was performed as described above for the GroEL/ES-dMDH refolding assay; however, the assay protocol differed in the sequence of compound addition to the assay plates. The refolding reactions were allowed to proceed for 45 min at 37° C. in the absence of test compounds (complete refolding of MDH occurs), then quenched with the EDTA stock. Compounds were then pin-transferred into the plates after the EDTA quenching step; thus, compounds effects are only possible by inhibiting the fully-refolded MDH reporter substrate. Next enzymatic activity of the refolded MDH was initiated by addition of 20 μL MDH enzymatic assay stock (20 mM sodium mesoxalate and 2.4 mM NADH in reaction buffer, 50 mM Tris pH 7.4, 50 mM KCl, 1 mM DTT), and followed by measuring the NADH absorbance in each well at 340 nm using a Molecular Devices SpectraMax Plus384 microplate reader
A340 nm measurements were recorded at 0.5 minutes (start point) and at successive time points until the amount of NADH consumed reached ˜90% (end point, generally between 20-35 minutes). Compounds were tested in 8-point, 3-fold dilution series (62.5 μM to 29 nM during the reporter reaction) in clear, flat-bottom 384-well microtiter plates.
DMSO was used as a negative control, and previously discovered native MDH inhibitors were used as positive controls. IC50 values for the test compounds were obtained by plotting the % inhibition results in GraphPad Prism 6 and analyzing by non-linear regression using the log (inhibitor) vs. response (variable slope) equation. Results presented represent the averages of IC50 values obtained from at least quadriplicate (duplicate of duplicate) replicates.

S. aureus = S. aureus bacterial proliferation assay; type: cell-based; details: cation adjusted BHI media, OD600 at 6-8 h; for EC50: Staphylococcus aureus, read-out: S. aureus Proliferation EC50; for S. aureus Proliferation EC50: Table 2
Procedure: Evaluation of compounds for inhibition of bacterial cell proliferation.
Growth Media: S. aureus bacteria were grown in Brain Heart Infusion (BHI) broth/agar (Becton, Dickinson and Company). All liquid cultures were grown in BHI media supplemented with 25 mg/L Ca^2+ and 12.5 mg/L Mg^2+ to mimic free physiological concentrations of these cations. A 10 mg/mL Ca^2+ stock solution was prepared by dissolving 3.68 g of CaCl2·2H^2O in 100 mL of deionized water, and a 10 mg/mL Mg^2+ stock solution was prepared by dissolving 8.36 g of […] in 100 mL deionized water. Both stock solutions were filter-sterilized using 0.2 μm pore size cellulose-acetate filters. 2.5 mL of the sterile 10 mg/mL Ca^2+ stock and 1.25 mL of the sterile 10 mg/mL Mg^2+ stock solutions were added per 1 L of autoclaved BHI medium to obtain 25 mg/L Ca^2+ and 12.5 mg/L Mg^2+ ions, respectively.
General Assay Protocol: Stock bacterial cultures were streaked onto BHI agar plates and grown overnight at 37° C. Fresh aliquots of broth were inoculated with single bacterial colonies and the cultures were grown overnight at 37° C. with shaking (240 rpm) in cation adjusted BHI media. The following morning, the overnight cultures were sub-cultured (1:5 dilution) into fresh aliquots of cation adjusted BHI media and grown at 37° C. for 1-2 hours with shaking. After 2 h, cultures were diluted into fresh media to achieve final OD600 readings of 0.017. Aliquots of these diluted cultures (30 μL) were added to clear, flat-bottom, 384-well polystyrene plates that were stamped with 0.5 μL of test compounds in 20 μL media. Compounds were evaluated in dose-response format where the inhibitor concentration range during the proliferation assay was 100 μM to 46 nM (3-fold dilution series). Plates were sealed with “Breathe Easy” oxygen permeable membranes (Diversified Biotech) and left to incubate at 37° C. without shaking (stagnant assay). OD600 nm readings were taken generally at 6-8 h, when bacteria had reached log-phase growth. A second set of baseline control plates were prepared analogously, but without any bacteria added, to correct for possible compound absorbance and/or precipitation. Plates were then read at 600 nm using a Molecular Devices SpectraMax Plus384 microplate reader. EC50 values for the test compounds were obtained by plotting the OD600 results in GraphPad Prism and analyzing by non-linear regression using the log(inhibitor) vs. response (variable slope) equation. For results, see Tables 1, 2, and 3.

Row | Compound | IC50 (native MDH; Table 3) [µM] | EC50 (S. aureus; Table 3) [µM] | IC50 (native MDH; Table 2) [µM] | S. aureus Proliferation EC50 (S. aureus) [µM] | further results
1 | COc1ccc(Cl)cc1C(=O)Nc1ccc(Oc2ccccc2)cc1 [Compound 92, 5-chloro-2-methoxy-N-(4-phenoxyphenyl)benzamide] | > 63 | > 100 | – | – | –
2 | O=C(Nc1cc(Cl)cc(Cl)c1O)c1c(O)c(Cl)cc(Cl)c1Cl [Oxyclosanide, reference compound] | – | – | – | – | IC50 (native MDH; Table 1): 54 µM; EC50 (S. aureus; Table 1): 0.52 µM
3 | O=C(Nc1ccc(OCc2ccccc2)cc1)c1cc(Cl)ccc1O [Compound 103, N-(4-(benzyloxy)phenyl)-5-chloro-2-hydroxybenzamide] | > 63 | > 100 | – | – | –
4 | COc1c(Cl)cccc1C(=O)Nc1cc(Cl)c(C(C#N)c2ccc(Cl)cc2)cc1C (stereo not drawn) [Compound 53, 3-chloro-N-(5-chloro-4-((4-chlorophenyl)(cyano)methyl)-2-methylphenyl)-2-methoxybenzamide] | – | – | > 63 | > 100 | –
5 | COc1ccc(Cl)cc1C(=O)Nc1ccc(Oc2ccccc2)c(Cl)c1 [Compound 90, 5-chloro-N-(3-chloro-4-phenoxyphenyl)-2-methoxybenzamide] | > 63 | > 100 | – | – | –
6 | Cc1cc(C(C#N)c2ccc(Cl)cc2)c(Cl)cc1NC(=O)c1ccccc1F (stereo not drawn) [Compound 79, N-(5-chloro-4-((4-chlorophenyl)(cyano)methyl)-2-methylphenyl)-2-fluorobenzamide] | – | – | > 63 | > 100 | –
7 | COc1c(Br)cc(Br)cc1C(=O)Nc1cc(Cl)c(C(C#N)c2ccc(Cl)cc2)cc1C (stereo not drawn) [Compound 45, 3,5-dibromo-N-(5-chloro-4-((4-chlorophenyl)(cyano)methyl)-2-methylphenyl)-2-methoxybenzamide] | – | – | > 63 | > 100 | –
8 | Cc1cc(C(C#N)c2ccc(Cl)cc2)c(Cl)cc1NC(=O)c1ccc([N+](=O)[O-])cc1 (stereo not drawn) [Compound 69, N-(5-chloro-4-((4-chlorophenyl)(cyano)methyl)-2-methylphenyl)-4-nitrobenzamide] | – | – | > 63 | > 100 | –
9 | COc1ccc(Cl)cc1C(=O)Nc1ccc(OCc2ccccc2)cc1 [Compound 102, N-(4-(benzyloxy)phenyl)-5-chloro-2-methoxybenzamide] | > 63 | > 100 | – | – | –
10 | Cc1cc(C(C#N)c2ccc(Cl)cc2)c(Cl)cc1NC(=O)c1cccc(O)c1 (stereo not drawn) [Compound 65, N-(5-chloro-4-((4-chlorophenyl)(cyano)methyl)-2-methylphenyl)-3-hydroxybenzamide] | – | – | > 63 | 1.8 | –
11 | COc1c(Br)cccc1C(=O)Nc1cc(Cl)c(C(C#N)c2ccc(Cl)cc2)cc1C (stereo not drawn) [Compound 47, 3-bromo-N-(5-chloro-4-((4-chlorophenyl)(cyano)methyl)-2-methylphenyl)-2-methoxybenzamide] | – | – | > 63 | > 100 | –
12 | COc1ccc(Cl)cc1C(=O)Nc1ccc(Oc2ccc(Cl)cc2)c(Cl)c1 [Compound 86, 5-chloro-N-(3-chloro-4-(4-chlorophenoxy)phenyl)-2-methoxybenzamide] | > 63 | > 100 | – | – | –
13 | COc1ccc(NC(=O)c2cc(Cl)ccc2O)cc1 [Compound 113, 5-chloro-2-hydroxy-N-(4-methoxyphenyl)benzamide] | > 63 | 31 | – | – | –
14 | Cc1cc(C(C#N)c2ccc(Cl)cc2)c(Cl)cc1NC(=O)c1cc(I)cc(I)c1O (stereo not drawn) [Closantel, reference compound] | – | – | – | – | IC50 (native MDH; Table 1): 6 µM; EC50 (S. aureus; Table 1): 0.48 µM
15 | Cc1cc(C(C#N)c2ccc(Cl)cc2)c(Cl)cc1NC(=O)c1ccc(O)cc1 (stereo not drawn) [Compound 66, N-(5-chloro-4-((4-chlorophenyl)(cyano)methyl)-2-methylphenyl)-4-hydroxybenzamide] | – | – | > 63 | 4.9 | –
16 | COc1cccc(C(=O)Nc2cc(Cl)c(C(C#N)c3ccc(Cl)cc3)cc2C)c1 (stereo not drawn) [Compound 62, N-(5-chloro-4-((4-chlorophenyl)(cyano)methyl)-2-methylphenyl)-3-methoxybenzamide] | – | – | > 63 | > 100 | –
17 | COc1ccc(Cl)cc1C(=O)Nc1ccc(CCc2ccccc2)cc1 [Compound 100, 5-chloro-2-methoxy-N-(4-phenethylphenyl)benzamide] | > 63 | > 100 | – | – | –
18 | COC(=O)c1ccc(NC(=O)c2cc(Cl)ccc2O)cc1 [Compound 107, methyl 4-(5-chloro-2-hydroxybenzamido)benzoate] | > 63 | 0.94 | – | – | –
19 | O=C(Nc1ccccc1)c1cc(Cl)ccc1O [Compound 117, 5-chloro-2-hydroxy-N-phenylbenzamide] | > 63 | 2.2 | – | – | –
20 | Cc1cc(C(C#N)c2ccc(Cl)cc2)c(Cl)cc1NC(=O)c1ccccc1N (stereo not drawn) [Compound 70, 2-amino-N-(5-chloro-4-((4-chlorophenyl)(cyano)methyl)-2-methylphenyl)benzamide] | – | – | > 63 | > 100 | –
21 | Cc1cc(C(C#N)c2ccc(Cl)cc2)c(Cl)cc1NC(=O)c1ccccc1Cl (stereo not drawn) [Compound 76, 2-chloro-N-(5-chloro-4-((4-chlorophenyl)(cyano)methyl)-2-methylphenyl)benzamide] | – | – | > 63 | > 100 | –
22 | N#CC(c1ccccc1)c1ccc(NC(=O)c2cc(Cl)ccc2O)cc1 (stereo not drawn) [Compound 85, 5-chloro-N-(4-(cyano(phenyl)methyl)phenyl)-2-hydroxybenzamide] | > 63 | 1.1 | – | – | –
23 | O=C(Nc1ccc(Cc2ccccc2)cc1)c1cc(Cl)ccc1O [Compound 99, N-(4-benzylphenyl)-5-chloro-2-hydroxybenzamide] | > 63 | > 100 | – | – | –
24 | O=C(Nc1ncc([N+](=O)[O-])s1)c1ccccc1O [Tizoxanide, reference compound] | – | – | – | – | IC50 (native MDH; Table 1): > 63 µM; EC50 (S. aureus; Table 1): 9.7 µM
25 | COc1ccc(Cl)cc1C(=O)Nc1ccc(CC#N)cc1 [Compound 110, 5-chloro-N-(4-(cyanomethyl)phenyl)-2-methoxybenzamide] | > 63 | > 100 | – | – | –
26 | COC(=O)c1ccc(NC(=O)c2cc(Cl)ccc2OC)cc1 [Compound 106, methyl 4-(5-chloro-2-methoxybenzamido)benzoate] | > 63 | > 100 | – | – | –
27 | O=C(Nc1ccc(Sc2nc3ccccc3s2)c(Cl)c1)c1cc(Cl)ccc1O [Compound 95, N-(4-(benzo[d]thiazol-2-ylthio)-3-chlorophenyl)-5-chloro-2-hydroxybenzamide] | > 63 | 0.14 | – | – | –
